The subject of assay [1] is BaF3/ITD cells. Nature of the assay: MTT growth inhibition assay, BaF3 FLT3-ITD cells. The note with it: Mus musculus, no IL-3, 48 h, read-out: Proliferation IC50. It is filed as cell-based. The procedure:
(§1) Figure 1 Growth of AL mutants in the presence of FLT3 TKI The BaF3 AL mutants were grown in the absence of IL-3 and analyzed by treatment in increasing concentrations of FLT3 TKI for 48 hours, after which growth inhibition was assessed using the MTT assay. Means are representative of at least three independent experiments.
(§2) The cells were grown in the absence of IL3 and analyzed by treatment in increasing concentrations of FLT3 TKI for 48 hours, after which growth inhibition was assessed using the MTT assay. Each experiment was performed at least three times and representative results are shown.
(§3) Based on Trypan Blue exclusion, 2 × 10^4 viable cells were seeded in quadruplicate in a 96-well microtiter plate in the presence or absence of inhibitor for 48 h. The effect of drug activity on cell viability was measured using the 3-(4,5-Dimethylthiazol-2-yl)-2,5-diphenyltetrazolium bromide (MTT) assay according to the manufacturer's instructions (Roche Applied Science, Indianapolis, IN, USA). Following treatment, cells were incubated for 4 h in MTT followed by dissolution in solubilization buffer overnight. Absorbance was measured at 570 nm on a Bio-Rad plate reader (Hercules, CA, USA). […] Results shown are presented as means and are representative of at least three independent experiments.
(Tetrazolium dyes change colour on reduction, which living cells bring about.)

For assay [2], the system named is BaF3 FLT3 D835Y mutant cells. Nature of the assay: MTT growth inhibition assay, BaF3 FLT3 D835Y cells. In kind it is cell-based. The note with it: Mus musculus, no IL-3, 48 h, read-out: Proliferation IC50. The procedure: as §1, §2, §3
Assay [3] deals with BaF3 FLT3 D835A mutant cells. Nature of the assay: MTT growth inhibition assay, BaF3 FLT3 D835A cells. It is filed as cell-based. The note with it: Mus musculus; BaF3 FLT3 D835A, no IL-3, 48 h, MTT; read-out: Proliferation IC50. How it is done: as §1, §2, §3
Assay [4] has as its system BaF3 FLT3 D835G mutant cells. Nature of the assay: MTT growth inhibition assay, BaF3 FLT3 D835G cells. In kind it is cell-based. The note with it: Mus musculus, no IL-3, 48 h, read-out: Proliferation IC50. The procedure: as §1, §2, §3
Assay [5] relates to BaF3 FLT3 D835N mutant cells. Nature of the assay: MTT growth inhibition assay, BaF3 FLT3 D835N cells. In kind it is cell-based. The note with it: Mus musculus, no IL-3, 48 h, read-out: Proliferation IC50. The procedure:
as §1, §2, §3

The subject of assay [6] is BaF3 FLT3 D835L+K mutant cells. The assay can be described thus: MTT growth inhibition assay, BaF3 FLT3 D835L+K cells. It is filed as cell-based. The note with it: Mus musculus, no IL-3, 48 h, read-out: Proliferation IC50. How it is done:
as §1, §2, §3

Assay [7] relates to BaF3 FLT3 I836L+D mutant cells. The assay can be described thus: MTT growth inhibition assay, BaF3 FLT3 I836L+D cells. In kind it is cell-based. The note with it: Mus musculus, no IL-3, 48 h, read-out: Proliferation IC50. The procedure:
as §1, §2, §3

In assay [8] the test system is BaF3 FLT3 I836S mutant cells. The assay can be described thus: MTT growth inhibition assay, BaF3 FLT3 I836S cells. In kind it is cell-based. The note with it: Mus musculus; BaF3 FLT3 I836S, no IL-3, 48 h, MTT; read-out: Proliferation IC50. The procedure:
as §1, §2, §3

Assay [9] has as its system BaF3 FLT3 I836T mutant cells. The assay can be described thus: MTT growth inhibition assay, BaF3 FLT3 I836T cells. In kind it is cell-based. The note with it: Mus musculus, no IL-3, 48 h, read-out: Proliferation IC50. How it is done:
as §1, §2, §3

The subject of assay [10] is BaF3 FLT3 840G+S mutant cells. Nature of the assay: MTT growth inhibition assay, BaF3 FLT3 840G+S cells. The note with it: Mus musculus, no IL-3, 48 h, read-out: Proliferation IC50. It is filed as cell-based. How it is done:
as §1, §2, §3

The subject of assay [11] is BaF3 FLT3 D593D mutant cells. Nature of the assay: MTT growth inhibition assay, BaF3 FLT3 D593D cells. It is filed as cell-based. The note with it: Mus musculus, no IL-3, 48 h, read-out: Proliferation IC50. The procedure:
as §1, §2, §3

Assay [12] addresses T1, FLT3 D835Y (Homo sapiens, UniProt P36888, D835Y).
T1 construct: expressed in transfected cells; host or cells: BaF3
T1 sequence (P36888 27-993 D835Y): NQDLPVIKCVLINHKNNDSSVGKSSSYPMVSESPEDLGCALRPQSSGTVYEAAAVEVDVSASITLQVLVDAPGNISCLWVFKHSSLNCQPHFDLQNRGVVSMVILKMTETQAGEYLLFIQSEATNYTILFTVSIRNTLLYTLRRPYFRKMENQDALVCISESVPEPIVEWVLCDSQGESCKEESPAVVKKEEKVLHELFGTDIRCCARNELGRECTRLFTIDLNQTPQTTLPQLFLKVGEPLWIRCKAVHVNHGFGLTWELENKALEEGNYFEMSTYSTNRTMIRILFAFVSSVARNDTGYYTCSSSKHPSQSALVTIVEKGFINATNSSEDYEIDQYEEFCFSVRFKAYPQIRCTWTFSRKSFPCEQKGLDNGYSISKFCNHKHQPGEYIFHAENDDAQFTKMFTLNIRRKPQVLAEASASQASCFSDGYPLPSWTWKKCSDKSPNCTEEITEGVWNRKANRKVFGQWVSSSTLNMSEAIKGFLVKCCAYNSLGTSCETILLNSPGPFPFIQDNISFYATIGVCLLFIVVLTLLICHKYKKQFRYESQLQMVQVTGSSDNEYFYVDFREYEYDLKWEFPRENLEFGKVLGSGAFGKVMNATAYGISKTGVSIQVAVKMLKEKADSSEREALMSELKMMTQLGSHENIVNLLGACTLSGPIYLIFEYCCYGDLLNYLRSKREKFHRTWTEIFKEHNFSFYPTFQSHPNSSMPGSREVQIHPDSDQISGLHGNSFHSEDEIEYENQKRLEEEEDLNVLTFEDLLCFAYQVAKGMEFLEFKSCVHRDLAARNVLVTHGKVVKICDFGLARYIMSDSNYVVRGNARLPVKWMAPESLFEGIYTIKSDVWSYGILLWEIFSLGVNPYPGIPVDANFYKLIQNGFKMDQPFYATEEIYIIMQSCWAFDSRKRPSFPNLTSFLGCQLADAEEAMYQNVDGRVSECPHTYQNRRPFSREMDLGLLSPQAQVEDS
The assay can be described thus: FLT3 autophosphorylation, immunoprecipitation/Western blot, D835Y. In kind it is cell-based. The note with it: FLT3 D835Y cells, highest concentrations tested, 1 h. The procedure:
Activated FLT3 expression was measured by performing immunoprecipitation, SDS-PAGE and Western blotting as previously described. Specifically, 10^7 cells were washed in medium and treated with inhibitor for 1 h followed by stimulation with 25 ng/ml of FLT3 ligand for 15 minutes where indicated. Cells were washed twice with ice-cold PBS and lysed in 300 µl of NP-40 lysis buffer (150 mM NaCl, 20 mM TrisHCl (pH7.4), 10% glycerol, 1% NP-40, 10 mM EDTA, 100 mM NaF) with 2 mM Na3VO4 and protease inhibitors (Complete Tablets, Roche, Mannheim, Germany) at 4°C for 30 m. Cell lysate was harvested by centrifugation at 13,000 × g for 30 m at 4°C. FLT3 S-18 antibody was incubated with 500 µg lysate overnight at 4°C followed by immunoprecipitation with protein A-agarose beads for 2 h. Beads were washed once in Tris buffered saline with 1% Tween-20 (TBST) and twice in TBS. Samples were boiled in sodium dodecyl sulfate (SDS) sample buffer prior to separating in a 8% SDS-polyacrylamide gel (SDS-PAGE). Proteins were transferred to a polyvinyl diflouride (PVDF) membrane (Millipore, Bedford, MA, USA) and detected by 4G10 phosphotyrosine antibody and anti-FLT3 S-18 antibody. FLT3 was visualized using the Odyssey Infra Red Imaging System from Li-Cor (Lincoln, NE, USA) using AlexaFluor 680 goat anti-mouse and AlexaFluor 800 goat anti-rabbit antibodies. […]
A general note: Immunoblotting shows a protein as a band on a membrane.

Assay [13] concerns FLT3/ITD. The assay can be described thus: FLT3/ITD autophosphorylation and signaling pathways, Western blot. In kind it is cell-based. The note with it: FLT3/ITD cells, 1 h, concentration-dependent. The procedure: Activated FLT3 expression was measured by performing immunoprecipitation, SDS-PAGE and Western blotting as previously described. Specifically, 10^7 cells were washed in medium and treated with inhibitor for 1 h followed by stimulation with 25 ng/ml of FLT3 ligand for 15 minutes where indicated. Cells were washed twice with ice-cold PBS and lysed in 300 µl of NP-40 lysis buffer (150 mM NaCl, 20 mM TrisHCl (pH7.4), 10% glycerol, 1% NP-40, 10 mM EDTA, 100 mM NaF) with 2 mM Na3VO4 and protease inhibitors (Complete Tablets, Roche, Mannheim, Germany) at 4°C for 30 m. Cell lysate was harvested by centrifugation at 13,000 × g for 30 m at 4°C. FLT3 S-18 antibody was incubated with 500 µg lysate overnight at 4°C followed by immunoprecipitation with protein A-agarose beads for 2 h. Beads were washed once in Tris buffered saline with 1% Tween-20 (TBST) and twice in TBS. Samples were boiled in sodium dodecyl sulfate (SDS) sample buffer prior to separating in a 8% SDS-polyacrylamide gel (SDS-PAGE). Proteins were transferred to a polyvinyl diflouride (PVDF) membrane (Millipore, Bedford, MA, USA) and detected by 4G10 phosphotyrosine antibody and anti-FLT3 S-18 antibody. FLT3 was visualized using the Odyssey Infra Red Imaging System from Li-Cor (Lincoln, NE, USA) using AlexaFluor 680 goat anti-mouse and AlexaFluor 800 goat anti-rabbit antibodies. Phosphorylation of the FLT3 downstream signaling mediators, STAT5, AKT and MAP kinase was investigated by loading 50 µg of whole cell lysate and probing with the indicated antibodies. The membrane was washed and incubated in goat anti-rabbit secondary antibody conjugated to horseradish peroxidase followed by enhanced chemiluminescence (ECL). The membrane was subsequently stripped in 200 mM glycine buffer, pH 2.5 with 0.1% Tween-20 and reprobed for STAT5, AKT and MAP kinase expression using the respective antibodies.

Assay [14] has as its system BaF3 FLT3 D835Y cells. Nature of the assay: Engraftment of BaF3 D835Y luciferase cells in BALB/c mice, bioluminescence imaging. In kind it is in vivo. The note with it: 10 mg/kg once daily oral gavage, day 5 to day 9. How it is done: On day 5 following transplantation, the level of engraftment was assessed by imaging mice for bioluminescence on an IVIS Spectrum imager. […] This experiment was repeated three times.
Cells were sorted for GFP and CD135 expression on a FACS AriaII cytometer using FACSDiva software. For engraftment, 2 ×10^6 cells were injected via tail vein into BALB/c mice (Jackson Laboratories, Bar Harbor, ME, USA) (day 0). […] [36, 37] […] Mice were imaged by intraperitoneal injection of luciferin (3 mg) and visualizing on an IVIS Spectrum imager (Caliper LifeSciences, Hopkinton, MA, USA) using Living Image software for analysis on day 5 following inoculation to monitor engraftment and on day 9 to assess drug effect. All animal procedures were conducted in accordance with the policy of the Johns Hopkins University School of Medicine Animal Care and Use Committee.

pIC50: −log10 of the molar value. Where only a bound is given, the exact number is not on record here.

On to `CNC(=O)c1cc(Oc2ccc(NC(=O)Nc3ccc(Cl)c(C(F)(F)F)c3)cc2)ccn1` [Sorafenib], for which the pIC50 in assay [1] is 7.73; in [2], below 5.70; in assay [3] it was below 6.70; in [4], 7.46; in assay [5] it was 7.50; in [6] it was below 6.70. For the same compound, the pIC50 in assay [7] was below 6.70; in assay [8] it was 7.99; in [9], 7.32; in assay [10] it was 8.30; in assay [11], below 6.70. Further, the “Inhibition of FLT3 autophosphorylation” value in assay [12] was “markedly reduced or absent inhibition”. Moreover, in assay [13], the “Inhibition of FLT3 autophosphorylation and phosphorylation of STAT5, AKT and Map kinase” value was “inhibited FLT3 autophosphorylation”. Also, in assay [14], the “Leukemic burden (bioluminescence) on day 9” value was “clear progression of leukemia”.

As to `Cc1ccc(F)c(NC(=O)Nc2ccc(-c3cccc4[nH]nc(N)c34)cc2)c1` [Linifanib], the pIC50 in assay [1] was 8.62; in assay [2] it was below 7.00; in assay [3], below 6.70; in assay [4], 8.07; in [5], 7.99; in assay [6], below 6.70. Also, the pIC50 was below 6.70 in assay [7]; below 6.70 in assay [8]; 8.28 in assay [9]; 8.68 in assay [10]; below 6.70 in assay [11].

Regarding `CCN(CC)CCNC(=O)c1c(C)[nH]c(/C=C2\C(=O)Nc3ccc(F)cc32)c1C` [Sunitinib], the pIC50 in [1] is 8.27; in assay [2], below 7.00; in [3], below 6.70; in [4], 7.32; in assay [5], 7.33; in assay [6], below 6.70. Further, the pIC50 in [7] was below 6.70; in [8], below 6.70; in assay [10] it was 8.40; in [11], below 6.70.

With `O=C(c1ccc(/C=C/c2n[nH]c3ccccc23)cc1)N1CCNCC1` [KW2449], the pIC50 in [1] was 7.39; in assay [2], below 6.70; in [3], 7.21; in assay [4], 7.25; in assay [5] it was 7.23; in [6] it was below 6.70. For the same compound, the pIC50 in assay [7] is below 6.70; in assay [8], below 6.70; in [9] it was 7.50; in assay [10], 7.46; in [11], below 6.70.
